Drawing on PubChem BioAssay (NCI), this text covers TGI and GI50 for nine compounds.

As a reminder, the TGI is the concentration giving total growth inhibition. A higher TGI goes with less potent growth arrest. As a reminder, the GI50 is the concentration at which growth is held to half of that of the control.

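Cells were grown in 96-well plates and exposed to each compound for 48 hours at five concentrations; endpoints were interpolated linearly between bracketing concentrations, or set to the highest concentration if not reached. Here, GI50 denotes the concentration required for 50% inhibition of growth. Definition used: TGI = concentration required for complete inhibition of growth.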

Holding throughout (assay): DTP human tumour cell line panel, 48 h
For assay [1], the system named is MDA-MB-231 breast.
Assay [2] relates to SNB-19 CNS.
Assay [3] has as its system SK-MEL-2 melanoma.
Assay [4] deals with KM12 colon.
In assay [5] the test system is 786-0 renal.
Assay [6] relates to T-47D breast.
Assay [7] relates to EKVX NSCLC.
Assay [8] concerns MCF7 breast.
For assay [9], the system named is TK-10 renal.
The subject of assay [10] is MALME-3M melanoma.

Consider `C[C@H]1/C(=C/C(=O)OCCN(C)C)CC[C@H]2[C@H]1C(=O)C[C@H]1C(C)(C)[C@@H](O)CC[C@]21C`, for which the TGI in assay [1], in assay [2], in assay [3], in [4], in assay [5] and in assay [6] was more than 100000 nM throughout. Moreover, the TGI in assay [7], in assay [8], in [9] and in [10] was more than 100000 nM throughout.
For `CN(C)CCCN(CCC1CCCCC1)CCC1CCCCC1`, the GI50 was 1620 nM in assay [1]; 5630 nM in assay [2]; 1930 nM in [3]; 1780 nM in assay [4]; 2740 nM in assay [5]; 1570 nM in assay [6]. Besides, the GI50 was 5680 nM in assay [7], 1320 nM in assay [8], 2500 nM in assay [9] and 1830 nM in [10]. Further, the TGI came out at 3970 nM in assay [1]; 18800 nM in assay [2]; 3730 nM in assay [3]; 3440 nM in assay [4]; 9160 nM in assay [5]; 3520 nM in assay [6]. The concentration for total growth inhibition (TGI) in assay [7] came out at 18800 nM; in assay [8], 2620 nM; in assay [9], 8920 nM; in assay [10], 3770 nM.
Take `COc1cc2c3cc1Oc1c(OC)c(OC)cc4c1C(=NCC4)Cc1ccc(cc1)Oc1cc(ccc1O)C[C@H]3N(C)CC2`: the TGI came to 27800 nM in [1]; 61600 nM in assay [2]; 31100 nM in assay [3]; 29800 nM in assay [4]; 22800 nM in assay [5]; 40400 nM in assay [6]. Moreover, the TGI in assay [7] is more than 100000 nM; in assay [8] it was 70000 nM; in assay [9], 43100 nM; in [10], 18000 nM.
For `CCCCC(CCCCCC(CCCC)NCc1ccc2c(c1)OCO2)NCc1ccc2c(c1)OCO2` (stereo not given), the GI50 is 539 nM in assay [1]; 1300 nM in assay [2]; 336 nM in [3]; 232 nM in assay [4]; 1250 nM in [5]; 315 nM in assay [6]. The GI50 in assay [7] was 1370 nM; in assay [8] it was 273 nM; in assay [9], 1430 nM; in [10], 1090 nM. The TGI in assay [1] turned out to be 1830 nM; in assay [2], 2590 nM; in assay [3] it was 835 nM; in [4], 510 nM; in assay [5] it was 2530 nM; in assay [6], 933 nM. The TGI in assay [7] was 2870 nM; in assay [8] it was 744 nM; in [9] it was 2880 nM; in assay [10], 2560 nM.
Regarding `Cc1ccc2oc(=O)cc(/C(=C3/C=CC=N3)c3ccc[nH]3)c2c1`, the GI50 was 802 nM in assay [1]; 355 nM in assay [2]; 740 nM in [3]; 344 nM in [4]; 279 nM in [5]; 445 nM in assay [6]. Further, the GI50 in assay [7] is 435 nM; in assay [8] it was 348 nM; in assay [9] it was 470 nM; in assay [10] it was 782 nM. The total growth inhibition concentration (TGI) in assay [1] was determined as 3070 nM; in assay [2], 4940 nM; in assay [3], 2890 nM; in assay [4], 1710 nM; in [5] it was 892 nM; in assay [6], 7660 nM. The TGI in assay [7] was determined as 4510 nM; in assay [8] it was 4230 nM; in [9], 4870 nM; in assay [10], 3820 nM.
For the compound `O=C(CCl)NCCNc1nccc(Nc2ccc(S(=O)(=O)Nc3ccccn3)cc2)n1`, the GI50 is 2900 nM in [1]; 2420 nM in assay [2]; 2330 nM in [3]; 3120 nM in assay [4]; 3250 nM in [5]; 1900 nM in assay [6]. The GI50 in [7] is 3150 nM; in assay [8] it was 1780 nM; in assay [9], 3040 nM; in assay [10] it was 2300 nM. Also, the TGI in assay [1] is 9980 nM; in assay [2], 7560 nM; in assay [3] it was 7830 nM; in assay [4] it was 11600 nM; in assay [5] it was 11700 nM; in assay [6] it was 8330 nM. The TGI came out at 12800 nM in [7], 5610 nM in assay [8], 10300 nM in assay [9] and 10500 nM in assay [10].
For the compound `BrC(Br)=C1C(=C(Br)Br)C(Br)C1Br` (stereo not given), the TGI in assay [1] is 3630 nM; in assay [2] it was 15500 nM; in assay [3], 7700 nM; in assay [4], 2150 nM; in assay [5] it was 882 nM; in [6], more than 100000 nM. Also, the TGI was found to be 4980 nM in [7], 1310 nM in assay [8], 1930 nM in [9] and 1590 nM in assay [10].
As for `CC(=O)Nc1cc2cc(N)ccc2oc1=O`, the TGI in assay [1], in assay [2], in [3], in assay [4], in assay [5] and in [6] was more than 100000 nM throughout. Besides, the total growth inhibition concentration (TGI) in assay [7], in [8], in assay [9] and in [10] was more than 100000 nM each time.
Regarding `O=C1/C(=C/c2ccccc2)CN(C(=O)C(Cl)Cl)C/C1=C\c1ccccc1`, the GI50 in assay [1] is 807 nM; in assay [2], 495 nM; in assay [3] it was 1790 nM; in assay [4], 267 nM; in [5], 1380 nM; in assay [6], 1190 nM. Also, the GI50 in assay [7] was 894 nM; in assay [8], 113 nM; in assay [9], 1790 nM; in [10], 996 nM. Also, the TGI in assay [1] stood at 2460 nM; in [2], 1780 nM; in assay [3], 4070 nM; in assay [4], 845 nM; in [5], 2820 nM; in [6], 4110 nM. The TGI in [7] was 3060 nM; in assay [8], 886 nM; in assay [9], 3220 nM; in assay [10], 3060 nM.
